Data: patent US6559170B1, “Pyridine derivatives having fungicidal activity and processes to produce and use same” (Dow AgroScience LLC, priority 1999, dated 2003)

Assays:
[1] = tested on: Erysiphe graminis—ERYSGT; experiment: Powdery Mildew of Wheat, 1-day protectant whole plant test; assay type: in vivo; conditions: 100 ppm spray, 1-day protectant (1DP), wheat cultivar Monon
[2] = tested on: Leptosphaeria nodorum—LEPTNO; experiment: Glume blotch of wheat, 1-day protectant whole plant test; assay type: in vivo; conditions: 100 ppm spray, 1-day protectant (1DP), wheat cultivar Monon
[3] = tested on: Phytophthora infestans—PHYTIN; assay type: in vivo; conditions: 100 ppm spray, 1-day protectant (1DP), tomatoes cultivar Rutgers
[4] = tested on: Puccinia recondita—PUCCRT; experiment: Brown rust of wheat, 1-day protectant whole plant test; assay type: in vivo; conditions: 100 ppm spray, 1-day protectant (1DP), wheat cultivar Monon

Compound | ERYSGT percent control of the plant disease compared with untreated, inoculated plants [1] [%] | LEPTNO percent control of the plant disease compared with untreated, inoculated plants [2] [%] | PHYTIN percent control of the plant disease compared with untreated, inoculated plants [3] [%] | PUCCRT percent control of the plant disease compared with untreated, inoculated plants [4] [%] | melting point [°C]
CNC(=O)C(=NOC)c1ccccc1COc1ccc(Sc2ccccc2)cn1 [Compound 6, 2-Methoxyimino-N-methyl-[2-(5-phenylthio-2-pyridyloxy)methylphenyl]acetamide] | 80 | 98 | 90 | 98 | 95 to 96
CNC(=O)C(=NOC)c1ccccc1COc1ncc(Sc2ccccc2)cc1Cl [Compound 3, 2-Methoxyimino-N-methyl-[2-(3-chloro-5-phenylthio-2-pyridyloxy)methylphenyl]acetamide] | 85 | 90 | 90 | 98 | 84 to 86
CNC(=O)C(=NOC)c1cccc(Cl)c1COc1ccc(Sc2ccc(C)cc2)cn1 [Compound 4, 2-Methoxyimino-N-methyl-{3-chloro-2-[5-(4-methylphenyl)thio-2-pyridyloxy]methylphenyl}acetamide] | 67 | 98 | 89 | 99 | 100 to 102
